# Laboratory results: the OPERA property sets (Mansouri et al. 2018)
# Settings: not given
SMILES,melting point [°C],ready biodegradability,log10 Koc (L/kg),log10 vapour pressure (mmHg),boiling point [°C],log10 Henry constant (atm·m³/mol),log10 biodegradation half-life (days)
CNc1ccccc1C(=O)O,180,readily biodegradable,–,–,–,–,–
O=CNC(N1CCN(C(NC=O)C(Cl)(Cl)Cl)CC1)C(Cl)(Cl)Cl (centres undefined),–,–,2.3,-6.7,–,–,–
Cc1cc(C(C)(C)C)c(O)c(C(C)(C)C)c1,71,readily biodegradable,–,-2.29,265,–,–
COc1c(O)cc(Cl)c(Cl)c1Cl,–,not readily biodegradable,2.8,-3.05,–,–,–
Nc1ccc([N+](=O)[O-])cc1,146,not readily biodegradable,1.88,-5.49,332,-8.9,–
O=Cc1ccc(O)c(Cl)c1,139,–,–,–,–,–,–
CCn1cc(C(=O)O)c(=O)c2cnc(N3CCNCC3)nc21,254,–,–,–,–,–,–
CCCOC(=O)C(C)C,–,–,–,0.924,135,–,–
N#CC(C#N)=C(C#N)C#N,199,–,–,–,–,–,–
CCCCCCC(C=O)=Cc1ccccc1,39.2,–,–,–,–,–,–
CCCCCCCC[Si](Cl)(Cl)Cl,–,–,–,–,232,–,–
O=C(Cl)c1ccc2ccccc2c1,51,–,–,–,305,–,–
CC(=NO)C(C)=NO,246,–,–,–,–,–,–
CNP(=O)(OC)Oc1ccc(C(C)(C)C)cc1Cl (centres undefined),60,–,–,–,–,–,–
C=CC(=O)OCCN(CC)CC,-60,–,–,–,–,–,–
CCCCC(C)S (centres undefined),-147,–,–,–,142,–,–
CCOC(=O)c1ccccc1OC,–,–,–,–,261,–,–
COCC(C)OC(C)=O (centres undefined),–,–,0.36,0.593,146,–,–
CCOc1ccc(F)cc1,-8.5,–,–,–,173,–,–
CC/C=C/C=C/C=O,84.5,–,–,–,–,–,–
CC(c1ccccc1)c1ccccc1,-17.9,–,–,-1.85,273,–,–
CC(COc1ccc(Oc2ccccc2)cc1)Oc1ccccn1 (centres undefined),46,–,–,-5.66,–,–,–
CCC(C)Nc1ccc(NC(C)CC)cc1 (centres undefined),18,–,–,–,–,–,–
CCCCC(CC)COC(=O)COc1cc(Cl)c(Cl)cc1Cl (centres undefined),–,–,–,-5.92,–,–,–
Cc1ccccc1CC=O,–,–,–,–,221,–,–
COC(=O)C(C)=O,–,–,–,–,136,–,–
Cc1cc(=O)c2ccccc2[nH]1,234,–,–,–,–,–,–

SMILES,melting point [°C],ready biodegradability,log10 Koc (L/kg),log10 vapour pressure (mmHg),boiling point [°C],log10 Henry constant (atm·m³/mol),log10 biodegradation half-life (days)
CC(O)c1ccco1 (centres undefined),–,–,–,–,162,–,–
O=Cc1cccnc1,–,–,–,–,–,-6.82,–
Cc1ncc([N+](=O)[O-])n1CC(O)CCl (centres undefined),77.5,–,–,–,–,–,–
c1cc2c3c(c1)ccc1ccc4cccc-2c4c13,–,–,–,–,–,–,2.54
O=C(Nc1ccccc1)NC1CCCCC1,–,–,2.07,–,–,–,–
CCC(C)(C)c1cc(O)c(C(C)(C)CC)cc1O,180,–,–,–,–,–,–
ClC1c2ccccc2CCc2ccccc21,106,–,–,–,–,–,–
C1CO1,-112,readily biodegradable,–,3.12,10.6,-3.83,–
Brc1sc(Br)c(Br)c1Br,118,–,–,–,326,–,–
CC(=O)O[C@]1(C(C)=O)CC[C@H]2[C@@H]3C=C(Cl)C4=CC(=O)C=C[C@]4(C)[C@H]3CC[C@@]21C,168,–,–,–,–,–,–
COc1cccc(C(=O)NN(C(=O)c2cc(C)cc(C)c2)C(C)(C)C)c1C,204,–,–,–,–,–,–
CCc1ccc(O)c(OC)c1,-7,–,–,–,236,–,–
C[C@@H](O)CC(=O)O,47.5,–,–,–,–,–,–
COCCOC,-58,–,–,1.68,85,–,–
CCOC(=O)C=Cc1ccc([N+](=O)[O-])cc1,139,–,–,–,–,–,–
CCOC(=O)c1ccc(OC)c(OC)c1,43.5,–,–,–,296,–,–
CNC(=O)C(C)SCCSP(=O)(OC)OC (centres undefined),43,–,–,–,–,–,–
FC(F)(Cl)C(Cl)(Cl)Cl,40.6,–,–,1.78,91.5,–,–
CC(=O)c1ccc(Cl)cc1Cl,33.5,–,–,–,–,–,–
Cc1ccc2sccc2c1,20.5,–,–,–,–,–,–
CN1C(=O)CN=C(c2ccccc2F)c2cc([N+](=O)[O-])ccc21,166,–,–,–,–,–,–
CCCC(CC)CC(C)C (centres undefined),–,–,–,–,158,–,–
Oc1cccc(Cl)c1O,48.5,–,–,–,–,–,–
CSC#N,-5,–,–,1.08,133,–,–
CCCCCCCCC=O,–,–,–,-0.432,191,-3.13,–
O=[N+]([O-])c1ccccc1Nc1ccccc1,75,–,–,-5,–,–,–
Oc1c(Br)cc(Br)cc1Br,95.5,readily biodegradable,–,–,286,–,–

SMILES,melting point [°C],ready biodegradability,log10 Koc (L/kg),log10 vapour pressure (mmHg),boiling point [°C],log10 Henry constant (atm·m³/mol),log10 biodegradation half-life (days)
O=C(O)C1CC=CCC1C(=O)O (centres undefined),–,not readily biodegradable,–,–,–,–,–
CCCCCCCC/C=C\CCCCCCCC(=O)[O-].[NH4+],71,–,–,–,–,–,–
Brc1cncc2ccccc12,41.5,–,–,–,282,–,–
CC(C)CCCCO,–,–,–,–,170,–,–
CCC(CC)COC(C)=O,–,–,–,–,162,–,–
O=C(O)c1cc(O)c(O)c(=O)c(O)c1,317,–,–,–,–,–,–
O=C(O)COc1c(F)c(F)c(F)c(F)c1F,109,–,–,–,–,–,–
CN(C)c1ccccn1,182,–,–,–,196,–,–
CC1(C)CCC(=Cc2ccc(Cl)cc2)C1(O)Cn1cncn1 (centres undefined),140,–,–,–,–,–,–
O=C(OC(=O)C(F)(F)C(F)(F)F)C(F)(F)C(F)(F)F,–,–,–,–,73,–,–
CC(Cl)(Cl)C(=O)Cl,–,–,–,–,118,–,–
COc1ccc(OC)cc1,59,readily biodegradable,–,–,213,–,–
ON=Cc1ccc(F)cc1,83.5,–,–,–,–,–,–
CCNc1ccc2ccccc2c1,236,–,–,–,316,–,–
CCCCCCCCCCCCI,0.3,–,–,-1.85,298,–,–
C1CCCC1,-93.8,–,–,2.5,49.3,-0.818,1.7
CC1(C)CC(N)CC(C)(C)N1,17,–,–,–,188,–,–
C1CCN(SSN2CCCCC2)CC1,64.2,–,–,–,–,–,–
CCCC(C(N)=O)n1nc2ccccc2n1 (centres undefined),126,–,–,–,–,–,–
Clc1ncccn1,67,–,–,–,–,–,–
CCCCCCCCCCCCCCCCCCCO,63.3,–,–,–,–,–,–
Cc1cccc2c1C=CC2,–,–,–,–,209,–,–
Cc1ccc2c(C)cccc2c1C,33.5,–,–,–,–,–,–
CN.Cl,228,–,–,–,–,–,–
CCCCOC(=O)c1ccccc1C(=O)OCc1ccccc1,–,readily biodegradable,3.72,-5.08,370,–,–
FC(F)(F)C(F)(F)C(F)(F)I,-95,–,–,–,41.2,–,–
Nc1cccc2c1Cc1ccccc1-2,126,–,–,–,–,–,–

SMILES,melting point [°C],ready biodegradability,log10 Koc (L/kg),log10 vapour pressure (mmHg),boiling point [°C],log10 Henry constant (atm·m³/mol),log10 biodegradation half-life (days)
CCc1cccc(Cl)c1,-55,–,–,–,184,–,–
C=C[C@H]1CN2CCC1C[C@@H]2[C@@H](O)c1ccnc2ccccc12 (some centres undefined),238,–,–,–,–,–,–
O=NN(c1ccccc1)c1ccccc1,66.5,readily biodegradable,3.08,–,–,–,–
CN(C)C(=O)Nc1cccc(C(F)(F)F)c1,164,–,1.9,-6.03,–,–,–
CCN(CC)S(=O)(=O)c1ccc(C(=O)O)cc1,193,–,–,–,–,–,–
Cc1c(Cl)cccc1Nc1ccccc1C(=O)O,207,not readily biodegradable,–,–,–,–,–
CC(C)OC(=O)C(O)(c1ccc(Br)cc1)c1ccc(Br)cc1,77,–,–,-7.09,–,–,–
CCC1(CC)C(=O)NC(=O)N(C)C1=O,150,–,–,–,–,–,–
FC(F)(F)C(F)(F)C(F)(F)C(F)(F)F,-128,–,–,3.3,-1.9,–,–
CCC(=O)O,-20.7,readily biodegradable,–,0.548,141,-6.35,–
ClCCCCBr,–,–,–,–,175,–,–
C=C=CCCCC,–,–,–,–,106,–,–
O=c1ccc2cc3ccoc3c(O)c2o1,252,–,–,–,–,–,–
CCCCC(CC)C(=O)OCC(COC(=O)C(CC)CCCC)OC(=O)C(CC)CCCC (centres undefined),–,readily biodegradable,–,–,–,–,–
Nc1ccc2c(c1)Cc1ccccc1-2,129,–,–,–,–,–,–
O=C(O)Cc1cccc(Cl)c1,78.8,–,–,–,–,–,–
CCCCCC[C@@H](O)C/C=C\CCCCCCCC(=O)O,5.5,–,–,–,–,–,–
CN(C)c1nc(N(C)C)nc(N(C)C)n1,173,–,–,–,–,–,–
S=C=Nc1ccc(N=C=S)cc1,132,–,–,–,–,–,–
Cl[Si](Cl)(c1ccccc1)c1ccccc1,–,not readily biodegradable,–,–,305,–,–
Cc1ccc(C)c2c1C(=O)c1ccccc1C2=O,140,–,–,–,–,–,–
CCC(C)CCC(C)(O)CC (centres undefined),-67.5,–,–,–,202,–,–
CCN(CC)C(=S)SC(=S)N(CC)CC,31,–,–,–,–,–,–
COc1ccc(-c2ccccc2)cc1,90,–,–,–,–,–,–

# Same assay, conditions: fish
SMILES,log10 BCF,log10 biotransformation half-life (days)
Cc1cc(C(C)(C)C)c(O)c(C(C)(C)C)c1,3.03,0.32
COc1c(O)cc(Cl)c(Cl)c1Cl,2.41,0.11
Nc1ccc([N+](=O)[O-])cc1,0.6,-0.51
Oc1c(Br)cc(Br)cc1Br,2.71,–
O=C(O)C1CC=CCC1C(=O)O (centres undefined),0.3,-0.57
CC(C)C1CCC(C(C)C)CC1 (centres undefined),–,0.97
CCCCOC(=O)c1ccccc1C(=O)OCc1ccccc1,1.21,-1.03
O=NN(c1ccccc1)c1ccccc1,1.33,-0.91
